The test system of one series is Venturia inaequalis. Put plainly: Venturia test (apple) / protective. The format is in vivo. As to conditions: 100ppm active ingredient, evaluated 10 days after inoculation. The source says: (§1) Zur Herstellung einer zweckmäßigen Wirkstoffzubereitung vermischt man 1 Gewichtsteil Wirkstoff mit den angegebenen Mengen Lösungsmittel und Emulgator und verdünnt das Konzentrat mit Wasser auf die gewünschte Konzentration.
Zur Prüfung auf protektive Wirksamkeit werden junge Pflanzen mit der Wirkstoffzubereitung in der angegebenen Aufwandmenge besprüht. Nach Antrocknen des Spritzbelages werden die Pflanzen mit einer wäßrigen Konidiensuspension des Apfelschorferregers Venturia inaequalis inokuliert und verbleiben dann 1 Tag bei ca. 20°C und 100% relativer Luftfeuchtigkeit in einer Inkubations-kabine.
Die Pflanzen werden dann im Gewächshaus bei ca. 21°C und einer relativen Luftfeuchtigkeit von ca. 90% aufgestellt.
10 Tage nach der Inokulation erfolgt die Auswertung. Dabei bedeutet 0% ein Wirkungsgrad, der demjenigen der Kontrolle entspricht, während ein Wirkungsgrad von 100% bedeutet, daß kein Befall beobachtet wird.

Another series relates to Botrytis cinerea. Put plainly: Botrytis test (cucumber) / protective. Format: in vivo. As to conditions: 500ppm active ingredient, evaluated 5-6 days after inoculation. As for the experimental part: as §1
Zur Prüfung auf protektive Wirksamkeit bespritzt man junge Gurkenpflanzen mit der Wirkstoffzubereitung in der angegebenen Aufwandmenge. 1 Tag nach der Behandlung werden die Pflanzen mit einer Sporensuspension von Botrytis cinerea inokuliert und stehen dann 48h bei 100% rel. Feuchte und 22°C. Anschließend stehen die Pflanzen bei 96% rel. Luftfeuchtigkeit und einer Temperatur von 14°C.
5-6 Tage nach der Inokulation erfolgt die Auswertung. Dabei bedeutet 0 % ein Wirkungsgrad, der demjenigen der Kontrolle entspricht, während ein Wirkungsgrad von 100 % bedeutet, dass kein Befall beobachtet wird.

A short description of the next series: physchem. As to conditions: pH 2.3.
The test system of series [1] is AMARE. Put plainly: Herbicidal action, test type PE. The format is in vivo. As to conditions: Test-Typ PE, 320 G/HA. The text has this:
(§2) Die herbizide Wirkung der Verbindungen der allgemeinen Formel (I) wird in den nachfolgenden Tabellen näher erläutert.

In series [2] the test system is SETVI. Put plainly: Herbicidal action, test type PE. Format: in vivo. As to conditions: Test-Typ PE, 320 G/HA.
Description: as §2

Series [3] deals with Myzus persicae. Put plainly: Myzus test; oral (MYZUPE). As to conditions: 100 g/ha; oral uptake by sucking; 100 % = all aphids killed. Format: in vivo. The text has this:
Zur Herstellung einer zweckmäßigen Wirkstoffzubereitung vermischt man 1 Gewichtsteil Wirkstoff mit den angegebenen Mengen Lösungsmittel und verdünnt das Konzentrat mit Wasser auf die gewünschte Konzentration.
Gefäße werden mit allen Stadien der Grünen Pfirsichblattlaus (Myzus persicae) besetzt, durch saugen an der Wirkstoffzubereitung der gewünschten Konzentration wird behandelt.
(§3) Nach der gewünschten Zeit wird die Wirkung in % bestimmt. Dabei bedeutet 100 %, dass alle Blattläuse abgetötet wurden; 0 % bedeutet, dass keine Blattläuse abgetötet wurden.

Series [4] has as its system Myzus persicae. Put plainly: Myzus test (MYZUPE spray treatment). Format: in vivo. As to conditions: 500 g/ha; spray on Chinese cabbage leaf discs (Brassica pekinensis); 100 % = all aphids killed.
Description: (§4) Zur Herstellung einer zweckmäßigen Wirkstoffzubereitung vermischt man 1 Gewichtsteil Wirkstoff mit den angegebenen Mengen Lösungsmittel und Emulgator und verdünnt das Konzentrat mit emulgatorhaltigem Wasser auf die gewünschte Konzentration.
Chinakohlblattscheiben (Brassica pekinensis), die von allen Stadien der Grünen Pfirsichblattlaus (Myzus persicae) befallen sind, werden mit einer Wirkstoffzubereitung der gewünschten Konzentration gespritzt.
as §3

For a further series, the system named is ECHCG. Put plainly: Herbicidal action, test type PE. As to conditions: Test-Typ PE, 320 G/HA. The format is in vivo.
Description: as §2

The subject of a further series is VIOTR. Put plainly: Herbicidal action, test type PE. Format: in vivo. As to conditions: Test-Typ PE, 320 G/HA.
Description: as §2

Series [5] deals with VERPE. Put plainly: Herbicidal action, test type PE. The format is in vivo. As to conditions: Test-Typ PE, 320 G/HA.
Description: as §2

Another series deals with Tetranychus urticae. Put plainly: Tetranychus test, OP-resistant (TETRUR spray treatment). Format: in vivo. As to conditions: 500 g/ha; spray on bean leaf discs (Phaseolus vulgaris); 100 % = all spider mites killed.
Description: as §4
Bohnenblattscheiben (Phaseolus vulgaris), die von allen Stadien der Gemeinen Spinnmilbe (Tetranychus urticae) befallen sind, werden mit einer Wirkstoffzubereitung der gewünschten Konzentration gespritzt.
Nach der gewünschten Zeit wird die Wirkung in % bestimmt. Dabei bedeutet 100 %, dass alle Spinnmilben abgetötet wurden; 0 % bedeutet, dass keine Spinnmilben abgetötet wurden.

For series [6], the system named is AMARE. Put plainly: Herbicidal action, test type PO. Format: in vivo. As to conditions: TEST-TYP PO, 80 G/HA.
Description: as §2

In series [7] the test system is SETVI. Put plainly: Herbicidal action, test type PO. Format: in vivo. As to conditions: TEST-TYP PO, 80 G/HA.
Description: as §2

Series [8] relates to VERPE. Put plainly: Herbicidal action, test type PO. The format is in vivo. As to conditions: TEST-TYP PO, 80 G/HA.
Description: as §2

The subject of a further series is Meloidogyne incognita. Put plainly: Meloidogyne test (MELGIN). As to conditions: 20 ppm; sand with lettuce seeds; 100 % = no galls. Format: in vivo.
Description: as §1
Gefäße werden mit Sand, Wirkstofflösung, Meloidogyne incognita-Ei-Larvensuspension und Salatsamen gefüllt. Die Salatsamen keimen und die Pflänzchen entwickeln sich. An den Wurzeln entwickeln sich die Gallen.
Nach der gewünschten Zeit wird die nematizide Wirkung an Hand der Gallenbildung in % bestimmt. Dabei bedeutet 100 %, dass keine Gallen gefunden wurden; 0 % bedeutet, dass die Zahl der Gallen an den behandelten Pflanzen der der unbehandelten Kontrolle entspricht.

For series [9], the system named is Blumeria graminis f·sp. hordei. Put plainly: Blumeria graminis test (barley) / protective. Format: in vivo. As to conditions: 1000 ppm active ingredient, evaluated 7 days after inoculation.
Description: as §1
Zur Prüfung auf protektive Wirksamkeit besprüht man junge Pflanzen mit der Wirkstoffzubereitung in der angegebenen Aufwandmenge.
Nach Antrocknen des Spritzbelages werden die Pflanzen mit Sporen von Blumeria graminis f·sp. hordei bestäubt.
Die Pflanzen werden in einem Gewächshaus bei einer Temperatur von ca. 18°C und einer relativen Luftfeuchtigkeit von ca. 80 % aufgestellt, um die Entwicklung von Mehltaupusteln zu begünstigen.
7 Tage nach der Inokulation erfolgt die Auswertung. Dabei bedeutet 0 % ein Wirkungsgrad, der demjenigen der Kontrolle entspricht, während ein Wirkungsgrad von 100 % bedeutet, dass kein Befall beobachtet wird.

A further series deals with DIGSA. Put plainly: Herbicidal action, test type PE. Format: in vivo. As to conditions: Test-Typ PE, 320 G/HA.
Description: as §2

The test system of the next series is PHBPU. Put plainly: Herbicidal action, test type PO. The format is in vivo. As to conditions: TEST-TYP PO, 80 G/HA.
Description: as §2

Description for physchem: Die Bestimmung erfolgt im sauren Bereich bei pH 2.3 mit 0,1% wässriger Phosphorsäure und Acetonitril als Eluenten linearer Gradient von 10% Acetonitril bis 95% Acetonitril.

On to `CCN(C)C=Nc1cnc(-c2ccc(C3CCCCC3)cc2)cc1C` [Beispiel 209], for which the Wirkungsgrad in the series with Venturia inaequalis and in the series with Botrytis cinerea was ≥ 70% throughout.

With `Cc1cc(-c2ccc(C(C)(C)C)cc2)ncc1N=CN1CCCCC1` [Beispiel 150], the Wirkungsgrad in the series with Venturia inaequalis and in the series with Botrytis cinerea was ≥ 70% in each case.

In the series “physchem”, `CC(=Nc1cnc(-c2ccc(Cl)c(C(F)(F)F)c2)cc1C)N1CCCCC1` [compound 124] showed a chromatographic logP of 0.94.

`CCN(C=Nc1cnc(-c2ccc(Cl)c(C(F)(F)F)c2)cc1C)CC` [Beispiel 119] yielded a chromatographic logP in the series “physchem” of 1.92. In addition, the “herbizide Wirkung AMARE” value with AMARE [1] is reported as 80. In the series on SETVI [2], the “herbizide Wirkung SETVI” value worked out at 100.

Regarding `Cc1cc(-c2cc(C(F)(F)F)cc(C(F)(F)F)c2)ncc1N=CN(C)C` [Beispiel 172], the Wirkung in the series on Myzus persicae [3] is on record as ≥ 80%.

`CCCCN(C=Nc1cnc(-c2ccc(Cl)c(C(F)(F)F)c2)cc1C)CCCC` [compound 118] came in with a chromatographic logP in “physchem” of 2.49.

`Cc1cc(-c2ccc(Cl)c(C(F)(F)F)c2)ncc1N=CN1CCCC1` [compound 117]: in the series “physchem”, the chromatographic logP was found to be 1.75.

Consider `Cc1cc(-c2cccnc2)ncc1N=CN(C)C` [Beispiel 270], for which the Wirkung in the series on Myzus persicae [4] and with Myzus persicae [3] was ≥ 80% each time.

In the case of `CC(=Nc1cnc(-c2ccc(Cl)c(C(F)(F)F)c2)cc1C)N(C)C` [compound 123], in the series “physchem”, the chromatographic logP is 1.03.

Consider `Cc1cc(-c2ccc(F)c(C(F)(F)F)c2)ncc1N=CN1CCCC1` [compound 121], for which the chromatographic logP in “physchem” is 1.85.

For `Cc1cc(Cl)ncc1N=CN(C)C` [Beispiel 131], the Wirkungsgrad in the series on Botrytis cinerea is ≥ 70%.

Turning to `Cc1cc(-c2ccc(C(F)(F)F)c(Cl)c2)ncc1N=CN(C)C` [Beispiel 105], the “herbizide Wirkung ECHCG” value in the series on ECHCG turned out to be 80. In addition, the “herbizide Wirkung SETVI” value in the series with SETVI [2] and with SETVI [7] was 80 throughout. Besides, in the series on VIOTR, the “herbizide Wirkung VIOTR” value amounted to 90. The “herbizide Wirkung VERPE” value in the series with VERPE [5] is reported as 100; in the series with VERPE [8], 80. Further, in the series with Tetranychus urticae, the Wirkung is given as ≥ 80%. For the same compound, the “herbizide Wirkung AMARE” value in the series with AMARE [6] stood at 80. Moreover, the “nematizide Wirkung an Hand der Gallenbildung” value in the series with Meloidogyne incognita is recorded as ≥ 80%.

In “physchem”, `Cc1cc(-c2ccc([Si](C)(C)C)cc2)ncc1N=CN(C)C` [compound 115] had a chromatographic logP of 1.51.

As for `Cc1cc(-c2ccc(C(F)(F)F)cc2)ncc1N=CN(C)C` [Beispiel 100], in the series with Meloidogyne incognita, the “nematizide Wirkung an Hand der Gallenbildung” value is ≥ 80%.

For `Cc1cc(-c2ccc(F)c(C(F)(F)F)c2)ncc1N=CN(C(C)C)C(C)C` [compound 122], in the series “physchem”, the chromatographic logP worked out at 1.9.

In the case of `CCN(C)C=Nc1cnc(-c2ccc(C(C)(C)C)cc2)cc1C` [Beispiel 142], the Wirkungsgrad (in [9]; in the series on Botrytis cinerea) was ≥ 70% in each case.

Compound `CCN(C)C=Nc1cnc(-c2ccc([Si](C)(C)C)cc2)cc1C` [compound 116] returned a chromatographic logP in the series “physchem” of 1.6.

In “physchem”, `Cc1cc(-c2ccc(OC(F)(F)F)cc2)ncc1N=CN(C)C` [compound 113] showed a chromatographic logP of 1.25.

Turning to `CCN(C)C=Nc1cnc(-c2ccc(OC(F)(F)F)cc2)cc1C` [compound 114], the chromatographic logP in the series “physchem” is 1.34.

The compound `Cc1cc(-c2ccc(Cl)c(C(F)(F)F)c2)ncc1N=CN(C(C)C)C(C)C` [compound 120] came in with a chromatographic logP in the series “physchem” of 2.23.

`CCN(C)C=Nc1cnc(-c2ccc(Cl)c(C(F)(F)F)c2)cc1C` [Beispiel 15]: the “herbizide Wirkung ECHCG” value with ECHCG is on record as 90. For the same compound, the “herbizide Wirkung AMARE” value in the series on AMARE [1] is reported as 90. In addition, the “herbizide Wirkung DIGSA” value in the series on DIGSA stood at 100. For the same compound, the “herbizide Wirkung SETVI” value with SETVI [2] came out at 100. In addition, the “herbizide Wirkung VERPE” value in the series with VERPE [5] turned out to be 90; in the series with VERPE [8], 80. The Wirkungsgrad (in series [9]; in the series on Venturia inaequalis; with Botrytis cinerea) was ≥ 70% each time. Besides, the “herbizide Wirkung PHBPU” value with PHBPU is 90.

With `CCN(C)C=Nc1cnc(-c2cccnc2)cc1C` [Beispiel 95], the Wirkung in the series on Myzus persicae [4] and with Myzus persicae [3] was ≥ 80% in each case.

For the compound `Cc1cc(-c2ccc(F)nc2)ncc1N=CN(C)C` [Beispiel 234], the Wirkung in the series with Myzus persicae [4] and in the series on Myzus persicae [3] was ≥ 80% each time. Also, the “nematizide Wirkung an Hand der Gallenbildung” value in the series with Meloidogyne incognita is reported as ≥ 80%.

On to `CCN(C)C=Nc1cnc(-c2ccc(OC(F)(F)F)c(F)c2)cc1C` [Beispiel 247], for which the “nematizide Wirkung an Hand der Gallenbildung” value in the series on Meloidogyne incognita is ≥ 80%. Moreover, the Wirkung with Myzus persicae [3] is recorded as ≥ 80%.

These data come from EP2264011A1, “Heteroarylamidines and their use as fungicides” (Bayer CropScience AG, priority 2009, dated 2010).
